ChEMBL document CHEMBL1158269, “Ehretianone, a novel quinonoid xanthene from Ehretia buxifolia with antisnake venom activity” (J Nat Prod, 1996)

What was measured:
[1] = Antisnake venom activity against Echis carinatus venom assessed as mortality at 1.25 mg/kg preincubated for 30 mins with venom LD50 before subcutaneous administration to Swiss albino mouse measured within 24 hrs; format: functional
[2] = Prophylactic activity against Echis carinatus venom assessed as mortality at 3.75 mg/kg, sc administered 30 mins before injection of venom to Swiss albino mouse measured within 24 hrs; format: functional; conditions: route subcutaneous
[3] = Antisnake venom activity against Echis carinatus venom assessed as mortality at 2.50 mg/kg preincubated for 30 mins with venom LD50 before subcutaneous administration to Swiss albino mouse measured within 24 hrs; format: functional; conditions: dose 2.5 mg/kg
[4] = Curative activity against Echis carinatus venom assessed as mortality at 3.75 mg/kg, sc administered 45 mins after injection of venom to Swiss albino mouse measured within 24 hrs; format: functional; conditions: route subcutaneous
[5] = Curative activity against Echis carinatus venom assessed as mortality at 3.75 mg/kg, sc administered 30 mins after injection of venom to Swiss albino mouse measured within 24 hrs; format: functional; conditions: route subcutaneous
Mus musculus = assay: Toxicity in Swiss albino mouse up to 100 mg/kg, sc; format: organism-based; set-up: dose 100 mg/kg, route subcutaneous; conditions: in vivo
[6] = Curative activity against Echis carinatus venom assessed as mortality at 3.75 mg/kg, sc administered 5 mins after injection of venom to Swiss albino mouse measured within 24 hrs; format: functional; conditions: route subcutaneous
[7] = Antisnake venom activity against Echis carinatus venom assessed as mortality at 3.75 mg/kg preincubated for 30 mins with venom LD50 before subcutaneous administration to Swiss albino mouse measured within 24 hrs; format: functional

SMILES: CC(C)=CC[C@]12C(=O)C=CC(=O)[C@]13CC(C)=C[C@H]2c1cc(O)ccc1O3 [EHRETIANONE]
- Activity [1]: 43.3%
- Activity [2]: 16.7%
- Activity [3]: 26.7%
- Activity [4]: 45%
- Activity [5]: 38.3%
- Activity (Mus musculus): Non-toxic
- Activity [6]: 21.7%
- Activity [7]: 13.3%
